From patent US7196192B2, “28-epirapalogs” (Ariad Gene Therapeutics, Inc., priority 1999, dated 2007)
Like-named read-outs stand apart in the source and are kept apart here.

How the values were obtained:
[1] = biological target: T1, transcriptional switch components containing FKBP and 2098L mutant FRB domains (Homo sapiens, UniProt P42345+P62942); experiment: transcription assay in engineered HD1080 cells expressing SEAP (txn 2098L); format: cell-based
T1 construct: transcriptional switchcomponents containing FKBP and 2098L mutant FRB domains, respectively; fused on or other part: The two switch components are separate chimeric proteins; Neither is given for this cell line
T1 sequence (P62942 2-108 limits assumed, stated change not applied, other chains not shown): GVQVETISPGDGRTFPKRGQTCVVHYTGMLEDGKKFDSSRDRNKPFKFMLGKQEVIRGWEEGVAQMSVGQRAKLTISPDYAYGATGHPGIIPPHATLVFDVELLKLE
Excerpt: The ability of the rapalogs to multimerize chimeric proteins may be measured in cell-based assays by measuring the occurrence of an event triggered by such multimerization. For instance, one may use cells containing and capable of expressing DNA encoding a first chimeric protein comprising one or more FKBP-domains and one or more effector domains as well as DNA encoding a second chimeric protein containing an FRB domain and one or more effector domains capable, upon multimerization, of actuating a biological response. We prefer to use cells which further contain a reporter gene under the transcriptional control of a regulatory element (i.e., promoter) which is responsive to the multimerization of the chimeric proteins. The design and preparation of illustrative components and their use in so engineered cells is described in WO99/36553 and WO96/41865 and the other international patent applications referred to in this and the foregoing section. (See also W099/10510 for additional guidance on the design, assembly and delivery of nucleic acids to render cells and animals responsive to rapalogs of interest and for additional guidance on applications of such systems.) The cells are grown or maintained in culture. A rapalog is added to the culture medium and after a suitable incubation period (to permit gene expression and secretion, e.g. several hours or overnight) the presence of the reporter gene product is measured. Positive results, i.e., multimerization, correlates with transcription of the reporter gene as observed by the appearance of the reporter gene product. The reporter gene product may be a conveniently detectable protein (e.g. by ELISA) or may catalyze the production of a conveniently detectable product (e.g. colored). Materials and methods for producing appropriate cell lines for conducting such assays are disclosed in the international patent applications cited above in this section.
2. EC50 values of the various compounds was measured in a transcription assay using genetically engineered HD1080 cells which constitutively express transcriptional switch components containing FKBP and 2098L mutant FRB domains, respectively and which regulatably express secreted alkaline phosphatase (SEAP) in the presence of a compound which multimerizes the switch components. The assay is a literature assay. See WO 99/36553, e.g. Example 12, pages 120–121 (& FIG. 2D) […]

murine splenocyte = murine splenocyte assay for immunosuppressive activity; format: cell-based; settings: mouse splenocyte assay, methods of Example 2.5, read-out: Splenocyte IC50
Procedure: 3. Conventional murine splenocyte assay for immunosuppressive activity.
(§1) A diverse group of C7-modified 28-epirapalogs were prepared as described in Example 4.

FKBP = FKBP (Homo sapiens, UniProt P62942); experiment: FKBP competitive binding assay based on fluorescence polarization (FP); settings: competitive FP binding, methods of Example 2.5
FKBP, sequence (P62942 whole entry): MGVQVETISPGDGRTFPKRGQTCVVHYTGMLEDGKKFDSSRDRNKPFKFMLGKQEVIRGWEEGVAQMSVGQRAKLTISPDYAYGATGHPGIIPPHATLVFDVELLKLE
Procedure: A Competitive Binding FP Assay is described in detail in WO99/36553 and WO96/41865. That assay permits the in vitro measurement of an IC50 value for a given compound which reflects its ability to bind to an FKBP-protein in competition with a labeled FKBP ligand, such as, for example, FK506.
as §1

[2] = cellular transcription assay, methods of Example 2.5; read-out: TXN 2098L EC50
[3] = read-out: TXN 2098L EC50; cellular transcription assay, methods of Example 2.5

SMILES | EC50 [1, 2] [nM] | IC50 (murine splenocyte) [nM] | IC50 (FKBP; read-out: FKBP IC50) [nM] | EC50 [1, 3] [nM] | IC50 (murine splenocyte; Mus musculus, Splenocyte) [nM] | IC50 (FKBP; FKBP IC50 (nM)) [nM] | TXN 2098L peak relative to rapamycin peak ([1]; superscript mark on EC50 cell)
CO[C@@H]1C[C@H](C[C@@H](C)[C@@H]2CC(=O)[C@H](C)/C=C(\C)[C@H](O)[C@@H](OC)C(=O)[C@H](C)C[C@H](C)/C=C/C=C/C=C(\C)[C@H](N(C)C(=O)Oc3ccc(C)cc3)C[C@@H]3CC[C@@H](C)[C@@](O)(O3)C(=O)C(=O)N3CCCC[C@H]3C(=O)O2)CC[C@H]1O [28-epi-7R-N-Me-p-tolylcarbamate] | 70 | 393 | 119 |  |  |  | 
C=CCO[C@@H]1C[C@@H]2CC[C@@H](C)[C@@](O)(O2)C(=O)C(=O)N2CCCC[C@H]2C(=O)O[C@H]([C@H](C)C[C@@H]2CC[C@@H](O)[C@H](OC)C2)CC(=O)[C@H](C)/C=C(\C)[C@H](O)[C@@H](OC)C(=O)[C@H](C)C[C@H](C)/C=C/C=C/C=C/1C [28-epi-7R-allyloxy] |  |  |  | 25 | 3400 | 11 | 
COC1CC(CC(C)C2CC(=O)C(C)C=C(C)C(O)C(OC)C(=O)C(C)CC(C)C=CC=CC=C(C)C(NC(=O)OCc3ccccc3)CC3CCC(C)C(O)(O3)C(=O)C(=O)N3CCCCC3C(=O)O2)CCC1O (stereo not drawn) [28-epi-7R-benzylcarbamate] | 9 | 2260 | 12 |  |  |  | (+) (peak was >125% rapamycin peak)
CCCCS(=O)(=O)N[C@@H]1C[C@@H]2CC[C@@H](C)[C@@](O)(O2)C(=O)C(=O)N2CCCC[C@H]2C(=O)O[C@H]([C@H](C)C[C@@H]2CC[C@@H](O)[C@H](OC)C2)CC(=O)[C@H](C)/C=C(\C)[C@H](O)[C@@H](OC)C(=O)[C@H](C)C[C@H](C)/C=C/C=C/C=C/1C [28-epi-7R-butanesulfonamide] | 20 |  | 11 |  | 0.16 |  | 
COc1ccc(C2CC3CCC(C)C(O)(O3)C(=O)C(=O)N3CCCCC3C(=O)OC(C(C)CC3CCC(O)C(OC)C3)CC(=O)C(C)C=C(C)C(O)C(OC)C(=O)C(C)CC(C)C=CC=CC=C2C)c(OC)c1 (stereo not drawn) [28-epi-7R-dimethoxyphenyl] | 26 | 22 to 28 | 54 |  |  |  | 
COC1CC(CC(C)C2CC(=O)C(C)C=C(C)C(O)C(OC)C(=O)C(C)CC(C)C=CC=CC=C(C)C(NS(=O)(=O)N(C)C)CC3CCC(C)C(O)(O3)C(=O)C(=O)N3CCCCC3C(=O)O2)CCC1O (stereo not drawn) [28-epi-7R-dimethylsulfamide] | 20 | 1840 | 29 |  |  |  | (+) (peak was >125% rapamycin peak)
CCOC(=O)N[C@@H]1C[C@@H]2CC[C@@H](C)[C@@](O)(O2)C(=O)C(=O)N2CCCC[C@H]2C(=O)O[C@H]([C@H](C)C[C@@H]2CC[C@@H](O)[C@H](OC)C2)CC(=O)[C@H](C)/C=C(\C)[C@H](O)[C@@H](OC)C(=O)[C@H](C)C[C@H](C)/C=C/C=C/C=C/1C [28-epi-7R-ethylcarbamate] |  |  |  | 9 | > 5000 | 7.5 | (+) (peak was >125% rapamycin peak)
CO[C@@H]1C[C@H](C[C@@H](C)[C@@H]2CC(=O)[C@H](C)/C=C(\C)[C@H](O)[C@@H](OC)C(=O)[C@H](C)C[C@H](C)/C=C/C=C/C=C(\C)[C@H](NS(C)(=O)=O)C[C@@H]3CC[C@@H](C)[C@@](O)(O3)C(=O)C(=O)N3CCCC[C@H]3C(=O)O2)CC[C@H]1O [28-epi-7R-methanesulfonamide] | 24 |  | 7.2 |  | 91 |  | 
CO[C@@H]1C[C@H](C[C@@H](C)[C@@H]2CC(=O)[C@H](C)/C=C(\C)[C@H](O)[C@@H](OC)C(=O)[C@H](C)C[C@H](C)/C=C/C=C/C=C(\C)[C@H](NS(=O)(=O)N(C)c3ccccc3)C[C@@H]3CC[C@@H](C)[C@@](O)(O3)C(=O)C(=O)N3CCCC[C@H]3C(=O)O2)CC[C@H]1O [28-epi-7R-methylphenylsulfamide] | 27 | 22 | 38 |  |  |  | 
COC1CC(CC(C)C2CC(=O)C(C)C=C(C)C(O)C(OC)C(=O)C(C)CC(C)C=CC=CC=C(C)C(c3ccc(C)s3)CC3CCC(C)C(O)(O3)C(=O)C(=O)N3CCCCC3C(=O)O2)CCC1O (stereo not drawn) [28-epi-7R-methylthiophene] | 22 | 394 to 424 | 120 |  |  |  | 
COC1CC(CC(C)C2CC(=O)C(C)C=C(C)C(O)C(OC)C(=O)C(C)CC(C)C=CC=CC=C(C)C(NC(=O)Oc3ccccc3)CC3CCC(C)C(O)(O3)C(=O)C(=O)N3CCCCC3C(=O)O2)CCC1O (stereo not drawn) [28-epi-7R-phenylcarbamate] | 10 | > 5000 | 9 |  |  |  | (+) (peak was >125% rapamycin peak)
CO[C@@H]1C[C@H](C[C@@H](C)[C@@H]2CC(=O)[C@H](C)/C=C(\C)[C@H](O)[C@@H](OC)C(=O)[C@H](C)C[C@H](C)/C=C/C=C/C=C(\C)[C@H](Oc3ccccc3)C[C@@H]3CC[C@@H](C)[C@@](O)(O3)C(=O)C(=O)N3CCCC[C@H]3C(=O)O2)CC[C@H]1O [28-epi-7R-phenyloxy] | 9 |  | 19 |  | 200 to 1950 |  | (−) (peak was <80% rapamycin peak)
CCN([C@H]1C[C@@H]2CC[C@@H](C)[C@@](O)(O2)C(=O)C(=O)N2CCCC[C@H]2C(=O)O[C@H]([C@H](C)C[C@@H]2CC[C@@H](O)[C@H](OC)C2)CC(=O)[C@H](C)/C=C(\C)[C@H](O)[C@@H](OC)C(=O)[C@H](C)C[C@H](C)/C=C/C=C/C=C/1C)S(C)(=O)=O [28-epi-7S-N-Et-methanesulfonamide] |  |  |  | 8 | 1360 | 31 | (+) (peak was >125% rapamycin peak)
CO[C@@H]1C[C@H](C[C@@H](C)[C@@H]2CC(=O)[C@H](C)/C=C(\C)[C@H](O)[C@@H](OC)C(=O)[C@H](C)C[C@H](C)/C=C/C=C/C=C(\C)[C@@H](N(C)C(=O)OCc3ccccc3)C[C@@H]3CC[C@@H](C)[C@@](O)(O3)C(=O)C(=O)N3CCCC[C@H]3C(=O)O2)CC[C@H]1O [28-epi-7S-N-Me-benzylcarbamate] | 9 | 158 | 40 |  |  |  | 
CO[C@@H]1C[C@H](C[C@@H](C)[C@@H]2CC(=O)[C@H](C)/C=C(\C)[C@H](O)[C@@H](OC)C(=O)[C@H](C)C[C@H](C)/C=C/C=C/C=C(\C)[C@@H](N(C)S(C)(=O)=O)C[C@@H]3CC[C@@H](C)[C@@](O)(O3)C(=O)C(=O)N3CCCC[C@H]3C(=O)O2)CC[C@H]1O [28-epi-7S-N-Me-methanesulfonamide] | 27 |  | 21 |  | 140 |  | (+) (peak was >125% rapamycin peak)
CO[C@@H]1C[C@H](C[C@@H](C)[C@@H]2CC(=O)[C@H](C)/C=C(\C)[C@H](O)[C@@H](OC)C(=O)[C@H](C)C[C@H](C)/C=C/C=C/C=C(\C)[C@@H](N(C)C(=O)Oc3ccc(C)cc3)C[C@@H]3CC[C@@H](C)[C@@](O)(O3)C(=O)C(=O)N3CCCC[C@H]3C(=O)O2)CC[C@H]1O [28-epi-7S-N-Me-p-tolylcarbamate] | 25 | 50 | 54 |  |  |  | 
C=CCO[C@H]1C[C@@H]2CC[C@@H](C)[C@@](O)(O2)C(=O)C(=O)N2CCCC[C@H]2C(=O)O[C@H]([C@H](C)C[C@@H]2CC[C@@H](O)[C@H](OC)C2)CC(=O)[C@H](C)/C=C(\C)[C@H](O)[C@@H](OC)C(=O)[C@H](C)C[C@H](C)/C=C/C=C/C=C/1C [28-epi-7S-allyloxy] |  |  |  | 8 | 1800 | 18 | 
